We go through 5 substances from patent publication US6858579B2, “Anti-inflammatory compounds” (William Harvey Research Limited, priority 2001, dated 2005).

One test relates to PMN migration. Put plainly: Mouse air-pouch model, zymosan-induced PMN migration. Type of test: in vivo, mice. Conditions: for activity in the in vivo animal model of inflammation: mouse air-pouch model, peptide s.c., result in words; for Approximate ED50, inhibition of PMN migration: mouse air-pouch, peptide s.c. 30 min prior to 1 mg zymosan, PMN counted 4 h after zymosan, n=15, P<0.01. As for the experimental part: Male Swiss Albino mice (20-22 g body weight) were purchased from Interfauna (CFLP strain; Huntingdon, Cambridgeshire, UK) and maintained on a standard chow pellet diet with tap water ad libitum. Animals were used at least one week after arrival.
Air-pouches were formed on the back of the mice by subcutaneous (s.c.) injection of 2.5 ml or air on day […]. Three days after the last air-injection (6-day-old air-pouches) 1 mg of zymosan (in 0.5 ml of sterile saline) was injected locally (Perretti et al., 1996). Zymosan was previously boiled for 30 min in phosphate buffered solution (PBS), extensively washed in the same medium and stored at −20° C. prior to use.
Four hours after the local injection of zymosan, mice were killed by CO2 exposure and the air-pouches washed with 2 ml of PBS containing ethylenediaminetetracetic acid sodium salt (EDTA; 3 mM) and heparin (25 U/ml).
Lavage fluids (essentially the entire 2 ml were consistently recovered) were centrifuged at 200 g for 10 min at 4° C. and cell pellets were resuspended in 2 ml of PBS/EDTA+heparin. The number of PMN was determined, using a Neubauer haematocytometer, after staining (1:10 dilution) with Turk's solution (crystal violet 0.01% w/v in acetic acid 3% v/v).
The following peptides were drawn from the lipocortin 1 N-terminus region: LC12-26 (Ac-[…] (SEQ ID NO:6)), LC12-12 (Ac-AMVSEFLKQAW (SEQ ID NO:4)), LC1 13-25 (FIENEEQEYVQTV (SEQ ID NO:7)), LC12-6(Ac-AMVSE ((SEQ ID NO 3))), or scramble LC12-6 (AC-SVEMA (SEQ ID NO:5)) were administered s.c. 30 min prior to injection of 1 mg zymosan into the air-pouches. Control mice were treated with sterile PBS (100 μl s.c.).

The test system of another test is A549 cell line. Conditions: in vitro A549 model; previous publications (Croxtall et al., 1993, 1998); result in words; cited from earlier work.

Where no end group is shown, it is not given here.

As for “AC-SVEMA (SEQ ID NO:5) (Ac-SVEMA) [scrambled version of AMVSE, reference compound]”, the “activity in the in vivo animal model of inflammation” value with PMN migration was “inactive”.

Regarding “Ac-AMVSE ((SEQ ID NO 3)) [LC12-6, N-acetylated lipocortin 1 fragment, residues 2-6]”, in the test with PMN migration, the “activity in the in vivo animal model of inflammation” value is recorded as “active” and the “Approximate ED50, inhibition of PMN migration” value is recorded as ~110 nmol. The like results for “Ac-AMVSEFLKQAW (SEQ ID NO:4) [LC12-12, N-acetylated lipocortin 1 fragment, residues 2-12]” were, in that order, “active” and ~110 nmol.

For the substance “Ac-AMVSEFLKQAWFIENEEQEYVQTVK (SEQ ID NO:6) [LC12-26, reference compound]”, in the test on PMN migration, the “Approximate ED50, inhibition of PMN migration” value was ~45 nmol.

Turning to “EQEYVQTV (SEQ ID NO:2) [LC118-25, lipocortin 1 fragment, residues 18-25]”, in the test with A549 cell line, the “inhibitory effect on A549 cell function” value is on record as “significant inhibitory activity”.
